# Assay results: article PMC10380766, “Development of Hydrophobic Cell-Penetrating Stapled Peptides as Drug Carriers” (International Journal of Molecular Sciences, 2023)
# Legend:
# [1] = Zeta-potential measurement of peptide/pDNA complexes; format: physicochemical; details: peptide/pDNA complex, laser-Doppler electrophoresis, 10 mM Hepes pH 7.3, 25 °C, mean ± SD of 3 measurements
# Experimental: (§1) The ability of peptides F-1–F-4 to deliver pDNA was evaluated using complexes between the peptides and pDNA in 10 mM Hepes buffer (pH 7.3). The zeta potentials and sizes of the peptide/pDNA complexes prepared at various charge ratios were determined (Table 2). The size of the F-1 peptide/pDNA complexes at a charge ratio of 2 was 3364 nm, and the sizes decreased with an increase in the charge ratios (Table 2). The sizes of the peptide/pDNA complexes were in the order of several hundred nm, which is considered to be a useful size for the delivery of pDNA, except for the complex with F-1 at N/P = 2, which was defined as the residual molar ratio of the amino groups in polycations of peptides (N) to the phosphate groups in pDNA (P). […] Thus, we examined the complexes of F-1–F-4 at N/P = 8 to evaluate the effect of the stapling of TP10 on the ability to deliver pDNA.
# (§2) Each 1 mM peptide solution in DMSO and pDNA was dissolved separately in 10 mM Hepes buffer (pH 7.3). To form peptide/pDNA complexes, peptide solutions of various concentrations were added to the pDNA solution in 2-fold excess. The final pDNA concentration was adjusted to […]. After the complex solutions were stored at room temperature for 15 min, the complex solutions were added. The charge ratio was defined as the residual molar ratio of the amino group of amino acid in the peptide to the phosphate group in the pDNA.
# (§3) The zeta-potentials of the peptide/pDNA complexes in 10 mM Hepes buffer (pH 7.3) were evaluated by the laser-Doppler electrophoresis method using Nano ZS (ZEN3600, Malvern Instruments, Ltd., Malvern, UK) with a He–Ne ion laser (633 nm). Light scattering data were obtained at a detection angle of 173° and temperature of 25 °C, and were subsequently analyzed by the cumulant method to obtain the hydrodynamic diameters, polydispersity indices (PDI) (m/G^2) and zeta-potential of the complexes. Results were presented as the mean and standard deviation of 3 measurements (Table 2).
# [2] = CD spectroscopy, secondary structure (R value); format: physicochemical; details: 10% acetonitrile in 20 mM phosphate buffer pH 7.4, peptide 50 µM, ratio of CD signal intensities at 222 and 208 nm
# Experimental: CD measurements were performed to analyze the preferred secondary structures of the synthesized peptides F-1–F-4 (10% acetonitrile in 20 mM phosphate buffer, pH 7.4) (Figure 2). […] These characteristic Cotton effects indicated the presence of a helical structure in F-1. […] To further evaluate the dominant secondary structures of the peptides, a parameter called the R value (θ222/θ208) was calculated. The R value represents the ratio of the CD signal intensities at 222 nm and 208 nm, respectively. For the peptides F-1, F-2, F-3, and F-4, the R values were determined to be 0.72, 1.83, 0.95, and 1.58, respectively. Based on previous studies, these R values indicate that the dominant secondary structures of all the peptides were α-helices.
# CD spectra were recorded with a JASCO J-1100 CD spectrometer using a 1.0 mm path length cell. The data are expressed in terms of [θ]; i.e., total molar ellipticity (deg cm^2 dmol^−1). Peptides were dissolved in 10% MeCN in 20 mM phosphate buffer solution at 50 µM concentrations. Each parameter was: wavelength: 190–260 nm; bandwidth: 1 nm; response: 1 s; speed: 50 nm min^−1; accumulations: 3 times; and path length: […].
# [3] = DLS measurement of peptide/pDNA complexes (size, PDI); format: physicochemical; details: peptide/pDNA complex, mean ± SD of 3 measurements; for Size: cumulant method
# Experimental: as §1, §2, §3
# pDNA = experiment: Displacement assay with dextran sulfate (gel retardation); format: physicochemical; details: N/P = 8, 100 ng pDNA, 30 min at 37 °C, agarose gel
# Experimental: (§4) The intracellular uptake of Cy5-labeled pDNA complexed with peptides F-1–F-4 was evaluated in […] cells. The fluorescence intensity of Cy5 incorporated into […] was quantified using flow cytometry at 24 h after administration (Figure 5). […] The stability of the peptide/pDNA complex was then evaluated by adding the negatively charged competitive inhibitor, dextran sulfate.
# Complex with 100 ng of pDNA and peptide at N/P ratio = 8 were incubated for 30 min at 37 °C in the presence of dextran sulfate (sodium salt, Wako, Japan) at various concentrations ranging 0, 0.05, 0.1, 0.5, and 1 mg/mL. After the incubation, the samples were analyzed on agarose gel and the gel was stained with SYBR Gold (Thermo Fisher Scientific, Waltham, MA, USA).
# Figure S1. Cellular uptake of peptide/Cy5-pDNA complexes at N/P = 8 with HEK293 cells. Cellular uptake ability was determined by flow cytometry. The cells were excited with a 488 nm light from an LD laser for detecting FAM-p eptide. Error bars represent the mean±standard deviation, n = 4.
# Dextran sulfate Dextran sulfate Dextran sulfate Dextran sulfate […]
# Figure S2. Physicochemical characterization of peptide/pDNA complexes at N/P = 8 with dextran sulfate. Gel retardation assay for evaluation of the stability and the dissociation of the peptide/pDNA complexes upon treatment with dextran sulfate at different concentrations ranging from 0 to 1 mg/mL. […]
# HEK293 cells [4] = experiment: Cellular uptake of peptide/Cy5-pDNA complexes by flow cytometry; format: cell-based; details: peptide/Cy5-pDNA complex at N/P = 8, HEK293 cells, flow cytometry 488 nm excitation, n = 4 (Figure S1)
# Experimental: as §4
# Figure 5 Cellular uptake of peptide/Cy5-pDNA complexes at N/P = 8 in HEK293 cells. The cellular uptake ability was determined by flow cytometry. The cells were excited with a 635 nm light for detecting Cy5-pDNA. Error bars represent the mean ± standard deviation, n = 4.
# as §2, with “The charge ratio was defined as the residual molar ratio of the amino group of amino acid in the peptide to the phosphate group in the pDNA.” left out
# HEK293 cells were seeded on 24-well culture plates (100,000 cells/well) and incubated overnight in 500 μL of DMEM. […] The cell pellets obtained were suspended in PBS and the cells were analyzed by a BD accuri C6 Plus flow cytometer (BD Bioscience, New Jersey).
# Figure S1. […] Cellular uptake ability was determined by flow cytometry. […]
# HEK293 cells [5] = experiment: Cellular-uptake mechanism: endocytosis inhibitors and 4 °C; format: cell-based; details: peptide 5 µM, flow cytometry
# Source text: To inhibit specific endocytic pathways, three different inhibitors were used: amiloride, nystatin, and sucrose. Each inhibitor targets a distinct endocytic pathway: amiloride inhibits […] (a form of endocytosis where cells engulf fluid and solutes); nystatin inhibits caveolae-mediated endocytosis (a process involving small invaginations in the cell membrane called caveolae); and sucrose inhibits clathrin-mediated endocytosis (a mechanism in which the protein clathrin forms coated pits on the cell surface to internalize molecules). As a control, a peptide called nona-arginine (R9) with CF […] was used. This peptide is known to enter cells via endocytosis. The uptake of CF-R9 with that of the parent peptide F-1 and the stapled peptide F-3 was compared.
# HEK293 cells were seeded in 24-well plates at a density of 200,000 cells/well and cultured in DMEM for 23 h. After the medium had been replaced with fresh medium containing 10% FBS in the absence or presence of amiloride (5 mM), sucrose (0.4 M), or nystatin (25 μg/mL), the cells were pre-incubated at 37 °C for 30 min. Then, the cells were treated with the relevant peptide (peptide concentration; 5 µM) and incubated for 30 min at 37 °C. […] Then, the cells were analyzed by a BD accuri C6 Plus flow cytometer (BD Bioscience, New Jersey). […]
# [6] = N/P ratio 2, 10 mM Hepes pH 7.3, 25 °C
# [7] = N/P ratio 4, 10 mM Hepes pH 7.3, 25 °C
# [8] = N/P ratio 8, 10 mM Hepes pH 7.3, 25 °C
substance,measurement,setting,value
"CF-XAGYLLGKINLKALAAS5*AKKS5*L (sidechain bridge or staple) [F-3, C-terminal stapled TP10 analog, Leu and Ile replaced with S5 residues, CF-labelled]",Zeta-Potential,[1]; N/P ratio 2,22.9 ± 1.1 mV
same,Zeta-Potential,[1]; N/P ratio 4,18.0 ± 1.7 mV
same,Zeta-Potential,[1]; N/P ratio 8,20.6 ± 3.0 mV
same,R value (θ222/θ208),[2],0.95
same,Size,[3]; [6],391 ± 8 nm
same,PDI,[3]; [6],0.417 ± 0.049
same,Size,[3]; [7],352 ± 57 nm
same,PDI,[3]; [7],0.366 ± 0.054
same,Size,[3]; [8],324 ± 53 nm
same,PDI,[3]; [8],0.399 ± 0.083
same,concentration of dextran sulfate at which the peptide/pDNA complex dissociated,"pDNA; dextran sulfate 0, 0.05, 0.1, 0.5, 1 mg/mL, SYBR Gold (Figure S2)",0.5 mg/mL
same,stability of the peptide/pDNA complex against dextran sulfate,pDNA; dextran sulfate 0-1 mg/mL,less stable than the other complexes
same,fluorescence from peptide detected by CF after adding peptide/Cy5-pDNA complex,HEK293 cells [4],strongest fluorescence
same,cellular uptake when incubated at 4 °C,HEK293 cells [5]; 30 min at 4 °C compared with 37 °C,significantly inhibited
same,cellular uptake when treated with endocytosis inhibitors,"HEK293 cells [5]; 30 min at 37 °C after 30 min pre-incubation with amiloride (5 mM), sucrose (0.4 M) or nystatin (25 μg/mL), n=3",significantly inhibited
